# Source: ChEMBL document CHEMBL2040728, “New substituted 4H-chromenes as anticancer agents” (Bioorg Med Chem Lett, 2012)
# Key:
# [1] = Antiproliferative activity against human WM164 cells after 48 hrs by SRB assay; format: functional, cell-based; conditions: WM164, 48 h
# PC-3 [2] = assay: Antiproliferative activity against human PC3 cells after 96 hrs by SRB assay; format: functional, cell-based; conditions: PC-3, 96 h
# LNCaP = assay: Antiproliferative activity against human LNCAP cells after 96 hrs by SRB assay; format: functional, cell-based
# [3] = Antiproliferative activity against human paclitaxel-resistant PC3-TxR cells after 96 hrs by SRB assay; format: functional, cell-based
# A-375 = assay: Antiproliferative activity against human A375 cells after 48 hrs by SRB assay; format: functional, cell-based; conditions: A-375, 48 h
# T98G = assay: Antiproliferative activity against human T98G cells after 5 days by MTT assay; format: functional, cell-based; conditions: 120 h
# [4] = Antiproliferative activity against human LN18 cells after 5 days by MTT assay; format: functional, cell-based; conditions: LN-18, 120 h
# [5] = Antiproliferative activity against human A172 cells after 5 days by MTT assay; format: functional, cell-based; conditions: A 172, 120 h
# [6] = Cytotoxicity against mouse primary astrocytes after 5 days by MTT assay; format: cell-based; conditions: Astrocyte, 120 h
# [7] = Antiproliferative activity against human U87 cells after 5 days by MTT assay; format: functional, cell-based, U-87MG ATCC; conditions: U-87 MG, 120 h
# NCI-H23 = assay: Cytotoxicity against human NCI-H23 cells assessed as growth at 10 uM; format: functional; conditions: read-out: Activity
# UACC-257 = assay: Cytotoxicity against human UACC257 cells assessed as growth at 10 uM; format: functional; conditions: read-out: Activity
# MCF7 = assay: Cytotoxicity against human MCF7 cells assessed as growth at 10 uM; format: functional; conditions: read-out: Activity
# CCRF-CEM = assay: Cytotoxicity against human CCRF-CEM cells assessed as growth at 10 uM; format: functional; conditions: read-out: Activity
# 786-0 = assay: Cytotoxicity against human 786-0 cells assessed as growth at 10 uM; format: functional; conditions: read-out: Activity
# HCC 2998 = assay: Cytotoxicity against human HCC2998 cells assessed as growth at 10 uM; format: functional; conditions: read-out: Activity
# NCI-H522 = assay: Cytotoxicity against human NCI-H522 cells assessed as growth at 10 uM; format: functional; conditions: read-out: Activity
# DU-145 = assay: Cytotoxicity against human DU145 cells assessed as growth at 10 uM; format: functional; conditions: read-out: Activity
# NCI/ADR-RES = assay: Cytotoxicity against human NCI/ADR-RES cells assessed as growth at 10 uM; format: functional; conditions: read-out: Activity
# EKVX = assay: Cytotoxicity against human EKVX cells assessed as growth at 10 uM; format: functional; conditions: read-out: Activity
# HT-29 = assay: Cytotoxicity against human HT-29 cells assessed as growth at 10 uM; format: functional; conditions: read-out: Activity
# HOP-62 = assay: Cytotoxicity against human HOP62 cells assessed as growth at 10 uM; format: functional; conditions: read-out: Activity
# MDA-MB-435 = assay: Cytotoxicity against human MDA-MB-435 cells assessed as growth at 10 uM; format: functional; conditions: read-out: Activity
# HOP-92 = assay: Cytotoxicity against human HOP92 cells assessed as growth at 10 uM; format: functional; conditions: read-out: Activity
# Malme-3M = assay: Cytotoxicity against human MALME-3M cells assessed as growth at 10 uM; format: functional; conditions: read-out: Activity
# OVCAR-5 = assay: Cytotoxicity against human OVCAR5 cells assessed as growth at 10 uM; format: functional; conditions: read-out: Activity
# KM12 = assay: Cytotoxicity against human KM12 cells assessed as growth at 10 uM; format: functional; conditions: read-out: Activity
# RPMI-8226 = assay: Cytotoxicity against human RPMI8226 cells assessed as growth at 10 uM; format: functional; conditions: read-out: Activity
# SK-MEL-2 = assay: Cytotoxicity against human SK-MEL-2 cells assessed as growth at 10 uM; format: functional; conditions: read-out: Activity
# SF-539 = assay: Cytotoxicity against human SF539 cells assessed as growth at 10 uM; format: functional; conditions: read-out: Activity
# NCI-H460 = assay: Cytotoxicity against human NCI-H460 cells assessed as growth at 10 uM; format: functional; conditions: read-out: Activity
# OVCAR-4 = assay: Cytotoxicity against human OVCAR4 cells assessed as growth at 10 uM; format: functional; conditions: read-out: Activity
# U-251 = assay: Cytotoxicity against human U251 cells assessed as growth at 10 uM; format: functional; conditions: read-out: Activity
# TK-10 = assay: Cytotoxicity against human TK10 cells assessed as growth at 10 uM; format: functional; conditions: read-out: Activity
# NCI-H226 = assay: Cytotoxicity against human NCI-H226 cells assessed as growth at 10 uM; format: functional; conditions: read-out: Activity
# SK-OV-3 = assay: Cytotoxicity against human SKOV3 cells assessed as growth at 10 uM; format: functional; conditions: read-out: Activity
# SF-268 = assay: Cytotoxicity against human SF268 cells assessed as growth at 10 uM; format: functional; conditions: read-out: Activity
# SNB-19 = assay: Cytotoxicity against human SNB19 cells assessed as growth at 10 uM; format: functional; conditions: read-out: Activity
# [8] = Cytotoxicity against human Hs 578T cells assessed as growth at 10 uM; format: functional; conditions: read-out: Activity
# A549 = assay: Cytotoxicity against human A549 cells assessed as growth at 10 uM; format: functional; conditions: read-out: Activity
# M14 = assay: Cytotoxicity against human M14 cells assessed as growth at 10 uM; format: functional; conditions: read-out: Activity
# OVCAR-3 = assay: Cytotoxicity against human OVCAR3 cells assessed as growth at 10 uM; format: functional; conditions: read-out: Activity
# T47D = assay: Cytotoxicity against human T47D cells assessed as growth at 10 uM; format: functional; conditions: read-out: Activity
# SW-620 = assay: Cytotoxicity against human SW620 cells assessed as growth at 10 uM; format: functional; conditions: read-out: Activity
# SK-MEL-5 = assay: Cytotoxicity against human SK-MEL-5 cells assessed as growth at 10 uM; format: functional; conditions: read-out: Activity
# MOLT-4 = assay: Cytotoxicity against human MOLT4 cells assessed as growth at 10 uM; format: functional; conditions: read-out: Activity
# SF-295 = assay: Cytotoxicity against human SF295 cells assessed as growth at 10 uM; format: functional; conditions: read-out: Activity
# OVCAR-8 = assay: Cytotoxicity against human OVCAR8 cells assessed as growth at 10 uM; format: functional; conditions: read-out: Activity
# MDA-MB-468 = assay: Cytotoxicity against human MDA-MB-468 cells assessed as growth at 10 uM; format: functional; conditions: read-out: Activity
# HCT-15 = assay: Cytotoxicity against human HCT15 cells assessed as growth at 10 uM; format: functional; conditions: read-out: Activity
# RXF 393 = assay: Cytotoxicity against human RXF393 cells assessed as growth at 10 uM; format: functional; conditions: read-out: Activity
# UACC-62 = assay: Cytotoxicity against human UACC62 cells assessed as growth at 10 uM; format: functional; conditions: read-out: Activity
# SNB-75 = assay: Cytotoxicity against human SNB75 cells assessed as growth at 10 uM; format: functional; conditions: read-out: Activity
# HCT-116 = assay: Cytotoxicity against human HCT116 cells assessed as growth at 10 uM; format: functional; conditions: read-out: Activity
# CAKI-1 = assay: Cytotoxicity against human Caki1 cells assessed as growth at 10 uM; format: functional; conditions: read-out: Activity
# UO-31 = assay: Cytotoxicity against human UO31 cells assessed as growth at 10 uM; format: functional; conditions: read-out: Activity
# HL-60(TB) = assay: Cytotoxicity against human HL-60(TB) cells assessed as growth at 10 uM; format: functional; conditions: read-out: Activity
# NCI-H322M = assay: Cytotoxicity against human NCI-H322M cells assessed as growth at 10 uM; format: functional; conditions: read-out: Activity
# BT-549 = assay: Cytotoxicity against human BT549 cells assessed as growth at 10 uM; format: functional; conditions: read-out: Activity
# PC-3 [9] = assay: Cytotoxicity against human PC3 cells assessed as growth at 10 uM; format: functional; conditions: read-out: Activity
# LOX IMVI = assay: Cytotoxicity against human LOXIMVI cells assessed as growth at 10 uM; format: functional; conditions: read-out: Activity
# ACHN = assay: Cytotoxicity against human ACHN cells assessed as growth at 10 uM; format: functional; conditions: read-out: Activity
# SN12C = assay: Cytotoxicity against human SN12C cells assessed as growth at 10 uM; format: functional; conditions: read-out: Activity
# IGROV-1 = assay: Cytotoxicity against human IGROV1 cells assessed as growth at 10 uM; format: functional; conditions: read-out: Activity
# SK-MEL-28 = assay: Cytotoxicity against human SK-MEL-28 cells assessed as growth at 10 uM; format: functional; conditions: read-out: Activity
# MDA-MB-231 = assay: Cytotoxicity against human MDA-MB-231 cells assessed as growth at 10 uM; format: functional; conditions: read-out: Activity
# K562 = assay: Cytotoxicity against human K562 cells assessed as growth at 10 uM; format: functional; conditions: read-out: Activity
# COLO 205 = assay: Cytotoxicity against human COLO205 cells assessed as growth at 10 uM; format: functional; conditions: read-out: Activity
smiles,measurement,setting,value
COc1ccc(C2C(C#N)=C(N)Oc3cc(N(C)C)ccc32)c2ccccc12 (configuration not stated),IC50,[1],0.49 µM
same,IC50,PC-3 [2],0.43 µM
same,IC50,LNCaP,0.76 µM
same,IC50,[3],0.53 µM
same,IC50,A-375,0.44 µM
Cn1nnc2c(C(N)=O)ncn2c1=O [TEMOZOLOMIDE],IC50,T98G,570 µM
same,IC50,[4],390 µM
same,IC50,[5],65 µM
same,IC50,[6],> 1000 µM
same,IC50,[7],49 µM
CN(C)c1ccc2c(c1)OC(N)=C(C#N)C2c1ccc(F)c2ccccc12 (configuration not stated),IC50,[1],0.47 µM
same,IC50,PC-3 [2],0.64 µM
same,IC50,LNCaP,0.41 µM
same,IC50,[3],0.29 µM
same,IC50,A-375,0.28 µM
CN(C)c1ccc2c(c1)OC(N)=C(C#N)C2c1cccc2c(F)cccc12 (configuration not stated),growth at 10 µM,NCI-H23,-0.47%
same,growth at 10 µM,UACC-257,51.5%
same,growth at 10 µM,MCF7,13.3%
same,growth at 10 µM,CCRF-CEM,11.3%
same,growth at 10 µM,786-0,16.8%
same,growth at 10 µM,HCC 2998,7.74%
same,growth at 10 µM,NCI-H522,-17.5%
same,growth at 10 µM,DU-145,-16.5%
same,growth at 10 µM,NCI/ADR-RES,-6.17%
same,growth at 10 µM,EKVX,36.7%
same,IC50,[4],0.0804 µM
same,growth at 10 µM,HT-29,-3.8%
same,growth at 10 µM,HOP-62,39.8%
same,growth at 10 µM,MDA-MB-435,-32.4%
same,growth at 10 µM,HOP-92,-2.42%
same,IC50,[5],0.0207 µM
same,growth at 10 µM,Malme-3M,49.6%
same,growth at 10 µM,OVCAR-5,27.6%
same,growth at 10 µM,KM12,-0.79%
same,growth at 10 µM,RPMI-8226,20.5%
same,growth at 10 µM,SK-MEL-2,27.9%
same,IC50,[1],0.22 µM
same,growth at 10 µM,SF-539,-7.29%
same,growth at 10 µM,NCI-H460,1.28%
same,growth at 10 µM,OVCAR-4,27.3%
same,growth at 10 µM,U-251,6.44%
same,growth at 10 µM,TK-10,45.8%
same,growth at 10 µM,NCI-H226,0%
same,growth at 10 µM,SK-OV-3,5.75%
same,growth at 10 µM,SF-268,24.8%
same,growth at 10 µM,SNB-19,39%
same,growth at 10 µM,[8],19.2%
same,growth at 10 µM,A549,11.5%
same,IC50,PC-3 [2],0.42 µM
same,growth at 10 µM,M14,-1.53%
same,growth at 10 µM,OVCAR-3,-35.4%
same,IC50,LNCaP,0.25 µM
same,growth at 10 µM,T47D,61.8%
same,growth at 10 µM,SW-620,23.5%
same,growth at 10 µM,SK-MEL-5,13.7%
same,growth at 10 µM,MOLT-4,13.9%
same,growth at 10 µM,SF-295,8.13%
same,growth at 10 µM,OVCAR-8,-23.4%
same,growth at 10 µM,MDA-MB-468,27.6%
same,growth at 10 µM,HCT-15,6.89%
same,growth at 10 µM,RXF 393,7.11%
same,growth at 10 µM,UACC-62,38.9%
same,growth at 10 µM,SNB-75,22.3%
same,growth at 10 µM,HCT-116,-5.99%
same,growth at 10 µM,CAKI-1,22.9%
same,growth at 10 µM,UO-31,49.4%
same,growth at 10 µM,HL-60(TB),-18.4%
same,growth at 10 µM,NCI-H322M,45.4%
same,IC50,[3],0.19 µM
same,growth at 10 µM,BT-549,-12.8%
same,growth at 10 µM,PC-3 [9],14.4%
same,IC50,A-375,0.13 µM
same,IC50,[6],9.45 µM
same,growth at 10 µM,LOX IMVI,5.96%
same,growth at 10 µM,ACHN,27.6%
same,growth at 10 µM,SN12C,16.4%
same,growth at 10 µM,IGROV-1,32.3%
same,IC50,[7],0.0629 µM
same,growth at 10 µM,SK-MEL-28,54.1%
same,growth at 10 µM,MDA-MB-231,31.9%
same,growth at 10 µM,K562,6.85%
same,growth at 10 µM,COLO 205,-38.1%
